Nine compounds from patent US20240252488A1 (KOREA RESEARCH INSTITUTE OF CHEMICAL TECHNOLOGY, priority 2020, published 2024) can be followed below.

In assay [1] the target is T1, MLKL (Homo sapiens, UniProt Q8NB16).
T1 sequence (Q8NB16 1-471): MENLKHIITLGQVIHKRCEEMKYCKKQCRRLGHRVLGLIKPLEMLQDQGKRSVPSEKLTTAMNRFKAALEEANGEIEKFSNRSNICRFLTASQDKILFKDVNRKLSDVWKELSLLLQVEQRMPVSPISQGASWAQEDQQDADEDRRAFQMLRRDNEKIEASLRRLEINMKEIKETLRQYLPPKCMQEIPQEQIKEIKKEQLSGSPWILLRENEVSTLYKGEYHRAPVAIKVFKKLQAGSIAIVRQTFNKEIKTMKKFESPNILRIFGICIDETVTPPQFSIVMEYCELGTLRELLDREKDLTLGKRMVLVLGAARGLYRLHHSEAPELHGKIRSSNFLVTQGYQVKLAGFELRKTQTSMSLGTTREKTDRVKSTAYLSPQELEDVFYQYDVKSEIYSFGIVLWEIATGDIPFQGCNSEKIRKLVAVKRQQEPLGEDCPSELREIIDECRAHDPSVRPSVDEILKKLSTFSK
In words: MLKL degradation assay in HepG2 cell line (western blot). The class given is cell-based. Also noted: endogenous in cells; host or cells: HepG2 or HaCaT. To be noted: cell line not given; for Degradation assay (Degradation %) 1 μM: compound 1 μM; for Degradation assay (Degradation %) 10 μM: compound 10 μM. Summed up:
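After treating HepG2 with test compounds (final 1 μM or 10 μM) for 20-24 h, we lysed cells, equalized protein by BCA and probed MLKL by overnight primary antibody at 4 °C followed by chemiluminescent detection.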
On the technique in general: In western blotting, separated proteins are transferred to a membrane and probed.

For assay [2], the target named is T1, MLKL. Briefly: Measurement of binding affinity with MLKL receptor (competitive binding assay, Kd). Also noted: made in house; host or cells: HEK 293 cell line (T7 phage in E. coli BL21-derived host is also described). The procedure, abridged:
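Kd from an immobilized-ligand competition format: the DNA-tagged kinase from HEK 293 expression is eluted and quantified by qPCR. Compounds added from 111× DMSO stocks, final DMSO 0.9%.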

The next assay deals with FADD−/− Jurkat cells. Briefly: Necroptosis inhibition assay, TNF-α-induced necroptosis (CellTiter-Glo 2.0). The class given is cell-based, human. To be noted: TNF-α 15 ng/mL; for Necroptosis inhibition assay (Rescue %) 1 μM: compound 1 μM; for Necroptosis inhibition assay (Rescue %) 10 μM: compound 10 μM. Summed up:
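Necroptosis was triggered by TNF-α at 15 ng/mL final following 30 minutes of compound exposure (0.1, 1 or 10 μM final). Incubation ran 20 to 24 hours at 37° C under 5% CO2; cell ATP was then quantified by luminescence.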
(In general: ATP-based viability assays read luminescence as a measure of living cells.)

pKd: −log10 of the molar value.

Regarding `Nc1ncc(-c2cnn(C3CCN(C(=O)c4cn(C5CCN(c6ccc7c(c6)C(=O)N(C6CCC(=O)NC6=O)C7=O)CC5)cn4)CC3)c2)nc1C(=O)O[C@@H](C(=O)Nc1ccc(F)cc1)c1ccccc1` (stereo partly drawn) [TDH-365, (R)-2-((4-fluorophenyl)amino)-2-oxo-1-phenylethyl 3-amino-6-(1-(1-(1-(1-(2-(2,6-dioxopiperidin-3-yl)-1,3-dioxoisoindolin-5-yl)piperidin-4-yl)-1H-imidazole-4-carbonyl)piperidin-4-yl)-1H-pyrazol-4-yl)pyrazine-2-carboxylate], on MLKL [1], the “Degradation assay (Degradation %) 1 μM” value was determined as 72.59% and the “Degradation assay (Degradation %) 10 μM” value was determined as 82.21%. The pKd at MLKL [2] was 8.41. For the same compound, in the assay with FADD−/− Jurkat cells, the “Necroptosis inhibition assay (Rescue %) 1 μM” value was 19.16% and the “Necroptosis inhibition assay (Rescue %) 10 μM” value is listed as 16.51%.
For `Nc1ncc(-c2cnn(C3CCN(CCCN4CCN(C(=O)CCc5ccc6c(c5)CN(C5CCC(=O)NC5=O)C6=O)CC4)CC3)c2)nc1C(=O)O[C@@H](C(=O)Nc1ccc(F)cc1)c1ccccc1` (stereo partly drawn) [TDH-476, (R)-2-((4-fluorophenyl)amino)-2-oxo-1-phenylethyl 3-amino-6-(1-(1-(3-(4-(3-(2-(2,6-dioxopiperidin-3-yl)-1-oxoisoindolin-5-yl)propanoyl)piperazin-1-yl)propyl)piperidin-4-yl)-1H-pyrazol-4-yl)pyrazine-2-carboxylate], at MLKL [1], the “Degradation assay (Degradation %) 1 μM” value came out at 87.94% and the “Degradation assay (Degradation %) 10 μM” value turned out to be 73.34%. At MLKL [2], this compound showed a pKd of 9.49. Moreover, in the assay on FADD−/− Jurkat cells (FADD−/− Jurkat cells), the “Necroptosis inhibition assay (Rescue %) 1 μM” value worked out at 47.52% and the “Necroptosis inhibition assay (Rescue %) 10 μM” value is 25.23%.
With `Nc1ncc(-c2cnn(C3CCN(CCCCCCNC(=O)CNc4ccc5c(c4)C(=O)N(C4CCC(=O)NC4=O)C5=O)CC3)c2)nc1C(=O)O[C@@H](C(=O)Nc1ccc(F)cc1)c1ccccc1` (stereo partly drawn) [TDH-132, (R)-2-((4-fluorophenyl)amino)-2-oxo-1-phenylethyl 3-amino-6-(1-(1-(6-(2-((2-(2,6-dioxopiperidin-3-yl)-1,3-dioxoisoindolin-5-yl)amino)acetamido)hexyl)piperidin-4-yl)-1H-pyrazol-4-yl)pyrazine-2-carboxylate], on MLKL [1], the “Degradation assay (Degradation %) 1 μM” value is on record as 40.32% and the “Degradation assay (Degradation %) 10 μM” value is 50.03%. Moreover, the pKd at MLKL [2] was 8.92. Further, in the assay on FADD−/− Jurkat cells, the “Necroptosis inhibition assay (Rescue %) 1 μM” value turned out to be 75.06% and the “Necroptosis inhibition assay (Rescue %) 10 μM” value amounted to 54.76%.
On to `Nc1ncc(-c2cnn(C3CCN(C(=O)CCC4CCN(C(=O)CNc5cccc6c5C(=O)N(C5CCC(=O)NC5=O)C6=O)CC4)CC3)c2)nc1C(=O)O[C@@H](C(=O)Nc1ccc(F)cc1)c1ccccc1` (stereo partly drawn) [TDH-421, (R)-2-((4-fluorophenyl)amino)-2-oxo-1-phenylethyl 3-amino-6-(1-(1-(3-(1-((2-(2,6-dioxopiperidin-3-yl)-1,3-dioxoisoindolin-4-yl)glycyl)piperidin-4-yl)propanoyl)piperidin-4-yl)-1H-pyrazol-4-yl)pyrazine-2-carboxylate], for which, on MLKL [1], the “Degradation assay (Degradation %) 1 μM” value is given as 86.78% and the “Degradation assay (Degradation %) 10 μM” value turned out to be 86.81%. Further, the pKd on MLKL [2] was 8.28. Besides, in the assay with FADD−/− Jurkat cells (FADD−/− Jurkat cells), the “Necroptosis inhibition assay (Rescue %) 1 μM” value is reported as 37.14% and the “Necroptosis inhibition assay (Rescue %) 10 μM” value turned out to be 35.74%.
As to `Nc1ncc(-c2cnn(C3CCN(CCOC4CCN(C(=O)COc5cccc6c5C(=O)N(C5CCC(=O)NC5=O)C6=O)CC4)CC3)c2)nc1C(=O)OC(C(=O)Nc1ccc(F)cc1)c1ccccc1` (stereo not drawn) [TDH-251, 2-((4-fluorophenyl)amino)-2-oxo-1-phenylethyl 3-amino-6-(1-(1-(2-((1-(2-((2-(2,6-dioxopiperidin-3-yl)-1,3-dioxoisoindolin-4-yl)oxy)acetyl)piperidin-4-yl)oxy)ethyl)piperidin-4-yl)-1H-pyrazol-4-yl)pyrazine-2-carboxylate], on MLKL [1], the “Degradation assay (Degradation %) 1 μM” value was found to be 72.87% and the “Degradation assay (Degradation %) 10 μM” value is 63.25%. On MLKL [2], the pKd is 8.74. For the same compound, in the assay on FADD−/− Jurkat cells, the “Necroptosis inhibition assay (Rescue %) 1 μM” value is 84.44% and the “Necroptosis inhibition assay (Rescue %) 10 μM” value amounted to 74.61%.
For `Nc1ncc(-c2cnn([C@H]3CCN(CCOCCOCCNC(=O)CNc4cccc5c4C(=O)N(C4CCC(=O)NC4=O)C5=O)C3)c2)nc1C(=O)OC(C(=O)Nc1ccc(F)cc1)c1ccccc1` (stereo partly drawn) [TDH-263, 2-((4-fluorophenyl)amino)-2-oxo-1-phenylethyl 3-amino-6-(1-((3S)-1-(2-(2-(2-(2-((2-(2,6-dioxopiperidin-3-yl)-1,3-dioxoisoindolin-4-yl)amino)acetamido)ethoxy)ethoxy)ethyl)pyrrolidin-3-yl)-1H-pyrazol-4-yl)pyrazine-2-carboxylate], on MLKL [1], the “Degradation assay (Degradation %) 1 μM” value is given as 76.27% and the “Degradation assay (Degradation %) 10 μM” value is 71.82%. At MLKL [2], this compound showed a pKd of 8.13. Further, in the assay on FADD−/− Jurkat cells, the “Necroptosis inhibition assay (Rescue %) 1 μM” value is given as 16.13% and the “Necroptosis inhibition assay (Rescue %) 10 μM” value is recorded as 57.97%.
`Nc1ncc(-c2cnn(C3CCN(CCCCCCCCCCNc4ccc5nnn(C6CCC(=O)NC6=O)c(=O)c5c4)CC3)c2)nc1C(=O)O[C@@H](C(=O)Nc1ccc(F)cc1)c1ccccc1` (stereo partly drawn) [TDH-179, (R)-2-((4-fluorophenyl)amino)-2-oxo-1-phenylethyl 3-amino-6-(1-(1-(10-((3-(2,6-dioxopiperidin-3-yl)-4-oxo-3,4-dihydrobenzo[d][1,2,3]triazin-6-yl)amino)decyl)piperidin-4-yl)-1H-pyrazol-4-yl)pyrazine-2-carboxylate]: at MLKL [1], the “Degradation assay (Degradation %) 1 μM” value stood at 78.61% and the “Degradation assay (Degradation %) 10 μM” value is recorded as 61.56%. The compound further showed a pKd at MLKL [2] of 7.51. Also, in the assay with FADD−/− Jurkat cells, the “Necroptosis inhibition assay (Rescue %) 1 μM” value is listed as 23.48% and the “Necroptosis inhibition assay (Rescue %) 10 μM” value is given as 14.8%.
In the case of `Nc1ncc(-c2cnn(C3CCN(C(=O)COC4CCN(c5cccc6c5C(=O)N(C5CCC(=O)NC5=O)C6=O)CC4)CC3)c2)nc1C(=O)O[C@@H](C(=O)Nc1ccc(F)cc1)c1ccccc1` (stereo partly drawn) [TDH-399, (R)-2-((4-fluorophenyl)amino)-2-oxo-1-phenylethyl 3-amino-6-(1-(1-(2-((1-(2-(2,6-dioxopiperidin-3-yl)-1,3-dioxoisoindolin-4-yl)piperidin-4-yl)oxy)acetyl)piperidin-4-yl)-1H-pyrazol-4-yl)pyrazine-2-carboxylate], at MLKL [1], the “Degradation assay (Degradation %) 1 μM” value amounted to 74.40% and the “Degradation assay (Degradation %) 10 μM” value is given as 71.63%. In addition, the pKd at MLKL [2] is 8.12. In the assay with FADD−/− Jurkat cells, the “Necroptosis inhibition assay (Rescue %) 1 μM” value is reported as 34.21% and the “Necroptosis inhibition assay (Rescue %) 10 μM” value was found to be 27.35%.
Turning to `COc1ccc(C(=O)N2CCC(CN3CCC4(CC3)CC(N3CCC(n5cc(-c6cnc(N)c(C(=O)O[C@@H](C(=O)Nc7ccc(F)cc7)c7ccccc7)n6)cn5)CC3)C4)CC2)cc1N1CCC(=O)NC1=O` [TDH-499, (R)-2-((4-fluorophenyl)amino)-2-oxo-1-phenylethyl 3-amino-6-(1-(1-(7-((1-(3-(2,4-dioxotetrahydropyrimidin-1(2H)-yl)-4-methoxybenzoyl)piperidin-4-yl)methyl)-7-azaspiro[3.5]nonan-2-yl)piperidin-4-yl)-1H-pyrazol-4-yl)pyrazine-2-carboxylate], at MLKL [1], the “Degradation assay (Degradation %) 1 μM” value turned out to be 90.60% and the “Degradation assay (Degradation %) 10 μM” value is 91.41%. Moreover, the pKd at MLKL [2] was 9.39. Also, in the assay with FADD−/− Jurkat cells (FADD−/− Jurkat cells), the “Necroptosis inhibition assay (Rescue %) 1 μM” value is on record as 45.83% and the “Necroptosis inhibition assay (Rescue %) 10 μM” value amounted to 11.8%.

A word on the pKd: it is the Kd on a negative log10 scale, so that one unit is a factor of ten.
